The target in assay [1] is T1, NAD(P)H dehydrogenase [quinone] 1 (Homo sapiens, UniProt P15559).
Description: Inhibition of human recombinant NQO1
In assay [2] the target is T1, NAD(P)H dehydrogenase [quinone] 1. The source holds these as a separate data set.
Description: Inhibition of human recombinant NQO1 in presence of BSA
The test system of assay [3] is MIA PaCa-2. In words: Induction of superoxide formation in human MIA PaCa2 cells. It is filed as functional, cell-based.
Assay [4] has as its system MIA PaCa-2. Description: Effect on respiration rate in human MIA PaCa2 cells assessed as oxygen consumption per 10^6 cells at 100 uM. In kind it is functional.
The subject of assay [5] is MIA PaCa-2. In words: Cytotoxicity against human MIA PaCa2 cells by MTT assay. It is filed as functional, cell-based. A general note: Formazan colour is commonly taken as a measure of viable cells.
Assay [6] has as its system MIA PaCa-2. In words: Growth inhibition of human MIA PaCa2 cells. It is filed as functional, cell-based.

Activity calls are given as the source filed them. The rule behind the calls is not given here.

What is called IC50 is the concentration that gives 50% inhibition. Low readings indicate greater potency in that assay, high ones weaker potency in that assay.

T1 sequence (P15559 whole entry): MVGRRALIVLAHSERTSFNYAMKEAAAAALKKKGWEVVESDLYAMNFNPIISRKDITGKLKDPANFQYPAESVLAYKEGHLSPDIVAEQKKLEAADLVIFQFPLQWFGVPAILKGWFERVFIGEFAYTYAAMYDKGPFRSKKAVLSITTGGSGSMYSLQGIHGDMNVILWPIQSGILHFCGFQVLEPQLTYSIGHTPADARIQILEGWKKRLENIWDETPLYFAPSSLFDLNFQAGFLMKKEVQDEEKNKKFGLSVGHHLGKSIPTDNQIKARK

As to `O=c1c(C(c2cccs2)c2c(O)oc3ccccc3c2=O)c(O)oc2ccccc12`, the IC50 in assay [1] was 550 nM; in assay [2], 10 µM.

With `O=c1c(C(c2ccco2)c2c(O)oc3ccccc3c2=O)c(O)oc2ccccc12`, the IC50 was 1300 nM in assay [1] and 5.9 µM in assay [2].

`O=c1oc2ccccc2c(O)c1Cc1c(O)c2ccccc2oc1=O` [DICUMAROL]: the outcome in assay [3] was Active. Besides, the Activity was 7 nmol/min in assay [4] and “Dose-dependent effect” in assay [6]. This molecule came in with an IC50 in assay [5] of 75 µM.

For the molecule `Nc1cc(=O)oc2ccccc12`, the half-maximal inhibitory concentration (IC50) in assay [1] worked out at 3250 nM; in assay [2] it was 13 µM.

With `O=C1OC2C=CC=CC2=C2Oc3c(c(=O)oc4ccccc34)C(c3c(O)c4ccccc4oc3=O)C12` (stereo unspecified), the Activity in assay [4] was 2.5 nmol/min; in assay [6], “Dose-dependent effect”. Besides, the IC50 in assay [5] was found to be 140 µM; in assay [1] it was 250 nM; in assay [2], 0.6 µM.

In the case of `COc1ccc(C(c2c(O)c3ccccc3oc2=O)c2c(O)c3ccccc3oc2=O)cc1`, the IC50 came out at 220 nM in assay [1] and 8.7 µM in assay [2].

`COc1cc(C(c2c(O)c3ccccc3oc2=O)c2c(O)c3ccccc3oc2=O)ccc1O`: the IC50 is 650 nM in assay [1] and 10 µM in assay [2].

In the case of `O=c1oc2ccccc2c(O)c1C1c2ccccc2Oc2c1c(=O)oc1ccccc21` (stereo unspecified), the Activity in assay [4] was 2.5 nmol/min; in assay [6], “Dose-dependent effect”. Moreover, it took 150 µM to reach half-maximal inhibition in assay [5] (IC50).

As to `O=c1c(Cc2c(O)oc3cc(O)ccc3c2=O)c(O)oc2cc(O)ccc12`, the Activity was 2.6 nmol/min in assay [4] and “Dose-dependent effect” in assay [6]. The IC50 in assay [5] worked out at 190 µM; in assay [1], 5 nM; in assay [2], 0.35 µM.

Take `O=c1c(C(c2cnc3ccccc3c2)c2c(O)oc3ccccc3c2=O)c(O)oc2ccccc12`: the results for the IC50 in assay [1] and in assay [2] were 380 nM and 18 µM, respectively.

Regarding `O=c1c(C(c2ccc3ccccc3c2)c2c(O)oc3ccccc3c2=O)c(O)oc2ccccc12`, the IC50 in assay [1] was 140 nM; in assay [2], 8.5 µM.
